According to the supplement of paper PMC6723410:

Tested on: GUMC-403
Assay: viability at highest tested concentration (max response) relative to DMSO (% of DMSO control); higher = less cytotoxic
Details: library / dose series: MIPE library, 11-point 1:3 dilution, 48 h
Method in brief: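 Viability at the highest tested concentration is given relative to vehicle control. For this, conditionally reprogrammed patient-derived GUMC-403 papilloma cells at 700/well in 1536-well plates were exposed to 23 nL of pinned compound for 48 h. Luminescence from CellTiter-Glo was read on a ViewLux and scaled between empty wells (0%) and vehicle wells (100%).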

Row | SMILES | viability (top concentration 46.1 µM) | viability (top concentration 23 µM)
1 | CC(C)NCC(O)c1ccc(NS(C)(=O)=O)cc1 (stereo not given) | 123 | –
2 | CC[C@H]1OC(=O)[C@H](C)[C@@H](O[C@H]2C[C@@](C)(OC)[C@@H](O)[C@H](C)O2)[C@H](C)[C@@H](O[C@@H]2O[C@H](C)C[C@H](N(C)C)[C@H]2O)[C@](C)(O)C[C@@H](C)CN(C)[C@H](C)[C@@H](O)[C@]1(C)O | 109 | –
3 | C[C@H]([C@H](O)CCC(C)(C)O)[C@H]1CC[C@@]2(O)C/3=C/C(=O)[C@@H]4C[C@@H](O)[C@@H](O)C[C@]4(C)[C@H]3CC[C@]12C | 120 | –
4 | C[C@H]1[C@@H](CC(C[C@H]2O[C@@H]3O[C@]4(C)CC[C@H]5[C@H](C)CC[C@@H]([C@H]2C)[C@@]35OO4)C[S+](=O)([O-])c2ccc(COC(=O)N(C)C)cc2)O[C@@H]2O[C@]3(C)CC[C@H]4[C@H](C)CC[C@@H]1[C@@]24OO3 | 104 | –
5 | C[C@]12CC[C@H]3[C@@H](CCC/4=C/C(=O)CC[C@]34C)[C@@H]1CC[C@@H]2OC(=O)CCC5CCCC5 | 102 | –
6 | ClC/1=C(NCCN2CCOCC2)/C(=O)C3=C(C=CC=N3)C1=O | 2.43 | –
7 | N=C1S/C(=C\c2ccc(-c3ccc4c(c3)C(=O)NC4=O)o2)C(=O)N1c1ccc(Br)cc1 | 142 | –
8 | ClC1=C[NH]N=C1C\2NC(=N\C3=C2C(=O)CCC3)/NC4=NC5=CC=CC=C5O4 (stereo not given) | 124 | –
9 | OC1=CC2=C(C=C1)C(=O)\C(=C(O2)\C3=CC(=C(O)C=C3)O)O | 72.6 | –
10 | CCCN[S+](=O)([O-])Nc1ncnc(OCCOc2ncc(Br)cn2)c1-c1ccc(Br)cc1 | 122 | –
11 | Fc1ccc(CNc2ncnc3ccc(F)cc23)cc1 | 80.4 | –
12 | C[S+]([O-])(=O)C1=CC=C(C=C1)C/2=C(/C(=O)OC2)C3=CC=CC=C3 | 122 | –
13 | COc1cc2ncnc(-n3nc(-c4ccccn4)nc3N)c2cc1OC | 124 | –
14 | COc1cc2c(cc1OC)CN(CCc1ccc(NC(=O)c3cccc4c(=O)c5cccc(OC)c5[nH]c34)cc1)CC2 | 132 | –
15 | C[C@@H]1CN[C@H]2[C@@H](C)[C@@]\3(CC[C@H]\4[C@@H]5C/C=C6/C[C@@H](O)CC[C@]6(C)[C@H]5CC4=C3C)O[C@@H]2C1 | 116 | –
16 | COc1c(O)cc2c(c1O)[C@@H]1O[C@H](CO)[C@@H](O)[C@H](O)[C@H]1OC2=O | 110 | –
17 | CCOC(=O)[C@H](CCc1ccccc1)N[C@H]1CCc2ccccc2N(CC(=O)O)C1=O | 124 | –
18 | C[C@]1(O)CC(C1)C2=NC(=C3[N]2C=CN=C3N)C4=CC5=C(C=C4)C=CC(=N5)C6=CC=CC=C6 (stereo not given) | 86.4 | –
19 | CSC1=CC(=CC=C1)NC2=NC3=C(C=N2)/C=C(C(=O)N3C)/C4=C(Cl)C=CC=C4Cl | 107 | –
20 | c1ccc2c(CN3CCNCC3)cccc2c1 | 122 | –
21 | Cn1cnc(N)c2ncnc1-2 | 82.9 | –
22 | CO[C@@H](C(=O)N1Cc2[nH]nc(NC(=O)c3ccc(N4CCN(C)CC4)cc3)c2C1)c1ccccc1 | 63.5 | –
23 | COC\1=C(/OC)C(=O)\C(=C(C)/C1=O)CCCCCCCCCCO | 112 | –
24 | NCC1(CC(=O)O)CCCCC1 | 115 | –
25 | C/C(=C\c1csc(C)n1)[C@@H]1C[C@@H]2O[C@@H]2CCC[C@H](C)[C@H](O)[C@@H](C)C(=O)C(C)(C)[C@@H](O)CC(=O)O1 | 114 | –
26 | CC(=O)Oc1ccccc1C(=O)O | 118 | –
27 | CCOc1cc(C(=O)Nc2ccc(Cl)c(-c3nc4ccccc4[nH]3)c2)cc(OCC)c1OCC | 90.5 | –

Row | SMILES | viability (top concentration 46.1 µM) | viability (top concentration 23 µM)
28 | COC1=C(CC=C(C)C)C2=C(\C=C/C(=O)O2)C=C1 | 92 | –
29 | CCCCc1oc2ccc(NS(C)(=O)=O)cc2c1C(=O)c1ccc(OCCCN(CCCC)CCCC)cc1 | 126 | –
30 | COc1cccc(OC)c1-c1cc(C(=O)NC2(C(=O)O)C3CC4CC(C3)CC2C4)nn1-c1ccnc2cc(Cl)ccc12 (stereo not given) | 124 | –
31 | COCC(=O)NC/C=C/c1ccc2ncnc(Nc3ccc(Oc4ccc(C)nc4)c(C)c3)c2c1 | 98.1 | –
32 | COc1ccc2c(c1)[C@]13CCCCC1C(C2)N(C)CC3 (stereo not given in full) | 102 | –
33 | COCCCN1CCC(NC(=O)c2cc(Cl)c(N)c3c2OCC3)CC1 | 76.9 | –
34 | CC(C)(C)C(=O)OCOP(=O)(COCCn1cnc2c(N)ncnc21)OCOC(=O)C(C)(C)C | 93 | –
35 | ClC1=C(N\C2=N\CCN2)C3=NSN=C3C=C1 | 129 | –
36 | O=C1NC(=O)/C(=C/c2ccc3nccnc3c2)S1 | – | 49.8
37 | CC(C(C)N1CC(=O)NC(=O)C1)N1CC(=O)NC(=O)C1 (stereo not given) | 109 | –
38 | Cn1c(=O)c2c(ncn2CC(O)CO)n(C)c1=O (stereo not given) | 138 | –
39 | NC\1=N\C(=O)N(\C=C1)[C@@H]2O[C@H](CO)[C@@H](O)[C@H]2O | 128 | –
40 | Cc1cnc(-c2cc(N3CCN(C(=O)CC[S+](C)(=O)[O-])CC3)ncc2Cl)c(C)c1 | 72.3 | –
41 | C1CCC(C(CC2CCCCN2)C2CCCCC2)CC1 (stereo not given) | 85.1 | –
42 | CO[C@H]1C[C@@H]2CC[C@@H](C)[C@@](O)(O2)C(=O)C(=O)N2CCCC[C@H]2C(=O)O[C@H]([C@H](C)C[C@@H]2CC[C@@H](OP(C)(C)=O)[C@H](OC)C2)CC(=O)[C@H](C)/C=C(\C)[C@@H](O)[C@@H](OC)C(=O)[C@H](C)C[C@H](C)/C=C/C=C/C=C/1C | 104 | –
43 | C/C=C/C/C=C/CCC(=O)[C@H]1O[C@H]1C(N)=O | 93.5 | –
44 | CN1CCN(CC1)C2=C3OCN(C)N4\C=C(C(O)=O)/C(=O)C(=C34)C=C2F | 123 | –
45 | C[N]1C=C(C=N1)C2=C3\C=N/NC(=O)C4=C3C(=CC(=C4)NC(=O)[C@H](N)C5CCCCC5)[NH]2 | 100 | –
46 | CC(C(=O)O)c1ccc(-c2ccccc2)c(F)c1 (stereo not given) | 110 | –
47 | C/C(O)=C(\C#N)C(=O)Nc1ccc(C(F)(F)F)cc1 | 94.3 | –
48 | C=C(C)[C@H]1Cc2c(ccc3c2O[C@@H]2COc4cc(OC)c(OC)cc4[C@@H]2C3=O)O1 | 112 | –
49 | CCCCCCCCCCCCCCCCCCCCCCO | 103 | –
50 | COc1cc2ncnc(Nc3cccc(Cl)c3)c2cc1OC | 98.8 | –
51 | CC1(C)O[C@@H]2C[C@H]3[C@@H]4CCC5=CC(=O)C=C[C@]5(C)[C@H]4[C@@H](O)C[C@]3(C)[C@]2(C(=O)CO)O1 | 147 | –
52 | C[C@]12CC[C@@H]3c4ccc(O)cc4CC[C@H]3[C@@H]1C[C@@H](O)[C@@H]2O | 87 | –
53 | Cn1cc(-c2ccc3nnc(C(F)(F)c4ccc5ncccc5c4)n3n2)cn1 | 110 | –
54 | Cc1cc(C(C)(C)C)c(O)c(C)c1CC1=NCCN1 | 120 | –

Row | SMILES | viability (top concentration 46.1 µM) | viability (top concentration 23 µM)
55 | COc1cc2nc(N3CCCN(C)CC3)nc(NC3CCN(Cc4ccccc4)CC3)c2cc1OC | 13.6 | –
56 | Cc1cc(-c2ccc(CC(=O)Nc3ccc(-c4cccnc4)cc3)cc2)ccn1 | 118 | –
57 | COC1=CC=C(C=C1O)C/2=C/C(=O)C3=C(O2)C=C(O[C@@H]4O[C@H](CO[C@@H]5O[C@@H](C)[C@H](O)[C@@H](O)[C@H]5O)[C@@H](O)[C@H](O)[C@H]4O)C=C3O | 117 | –
58 | COC1=CC=C(C=C1)C2CC(=N/N2C3=CC=C(C=C3)[S+](N)([O-])=O)\C4=CC=CC=C4 (stereo not given) | 137 | –
59 | CCN(CC)CCOc1ccc(/C(=C(\Cl)c2ccccc2)c2ccccc2)cc1 | 114 | –
60 | CC(=O)Oc1cc2c(s1)CCN(C(C(=O)C1CC1)c1ccccc1F)C2.Cl (stereo not given) | 114 | –
61 | C[N]1C=NC=C1[C@@](N)(C2=CC=C(Cl)C=C2)C3=CC=C4N(C)C(=O)\C=C(\C5=CC=CC(=C5)Cl)C4=C3 | 96.3 | –
62 | CCOCC(O)COc1ccc(NC(=O)CC[S+](C)C)cc1 (stereo not given) | 111 | –
63 | CNc1nccc(-c2cccnc2Oc2cc(C(=O)Nc3cccc(C(F)(F)F)c3)ccc2C)n1 | 98 | –
64 | CCCNC(=O)[C@H]1O[C@@H]1C(=O)N[C@H](C(=O)N1CCC[C@H]1C(=O)OC)C(C)CC (stereo not given in full) | 109 | –
65 | O=C1N\C=N/C2=C1C=N[NH]2 | 106 | –
66 | COC1CCC(CC1)N(C(=O)C2CCC(C)CC2)C3=C(SC(=C3)\C4=C\CCCC4)C(O)=O (stereo not given) | 110 | –
67 | CN1CCN(CC1)C2=CC3=C([NH]C(=N3)C/4=C(\N)C5=C(F)C=CC=C5NC4=O)C=C2 | 123 | –
68 | C[C@@H]1[C@H](O)[C@@H](C)/C=C/C=C/C=C/C=C/C=C/C=C/C=C/[C@H](O[C@@H]2O[C@H](C)[C@@H](O)[C@H](N)[C@@H]2O)C[C@@H]2O[C@](O)(C[C@@H](O)C[C@@H](O)[C@H](O)CC[C@@H](O)C[C@@H](O)CC(=O)O[C@H]1C)C[C@H](O)[C@H]2C(=O)O | 123 | –
69 | N[C@@H](Cc1ccc(O)c(O)c1)C(=O)O | 133 | –
70 | CC[C@@H](C)[C@H](NC(=O)[C@H](CC1CCCCC1)NC(=O)c1ccno1)C(=O)N1CCC2(CCc3ccccc32)CC1 | 90.5 | –
71 | CN(C)c1nc(N(C)C)nc(N(C)C)n1 | 95.4 | –
72 | O=C(/C=C/C=C/c1ccc2c(c1)OCO2)N1CCCCC1 | 114 | –
73 | OC[C@H]1O[C@@H](O[C@@H]2O\C=C(/[C@H]3C\C=C(CO)/[C@@H]23)C(O)=O)[C@H](O)[C@@H](O)[C@@H]1O | 124 | –
74 | CC(=O)O[C@H]1C[C@@H]2CC[C@@H]3[C@H](CC[C@@]4(C)[C@H]3C[C@H]([N+]3(C)CCCCC3)[C@@H]4OC(C)=O)[C@@]2(C)C[C@@H]1N1CCCCC1 | 130 | –
75 | O=C1NC(=O)/C(=C/c2ccc(-c3ccc(F)cc3O)o2)S1 | 83 | –
76 | Clc1ccc2ncc(-c3cccc(NC4CNC4)n3)n2c1 | 124 | –
77 | C[C@H]1C[C@@H]2[C@H](CC[C@@]3(C)[C@H]2CC[C@]3(OC(C)=O)C(C)=O)[C@@]\4(C)CCC(=O)\C=C14 | 147 | –
78 | Nc1nc(Cl)nc2c1ncn2[C@@H]1O[C@H](CO)[C@@H](O)[C@@H]1F | 104 | –
79 | FC1=C(C=C(C\C2=N\NC(=O)C3=C2C=CC=C3)C=C1)C(=O)N4CCN(CC4)C(=O)C5CC5 | 82.6 | –
80 | COc1ccc2nc3cc(Cl)ccc3c(Nc3cc(CN4CCCC4)c(O)c(CN4CCCC4)c3)c2n1 | 116 | –
